pIC50: −log10 of the molar value. “Also recorded” adds a separate entry of the source.

The term pIC50 denotes the negative decadic logarithm of the IC50, by convention in mol/L.

One data set relates to Caco-2 cell monolayers. Description: Caco-2 cell monolayer transport assay. The format is in vitro ADME. To be noted: apical pH 6.5 to basolateral pH 7.4, 0 mM HNAP. Background: Caco-2 cells form a polarised layer with tight junctions and transporters.
Another data set concerns rat jejunum. Description: Rat jejunal single-pass perfusion assay. The format is in vivo. The settings on record: for rat jejunal Peff in the absence of HNAP: drug perfused alone, 0 mM HNAP.
A short description of another data set: Octanol-buffer. To be noted: Log PAB versus cLog P of free drug.
For data set [1] the following is noted: rat, in vivo; cited from earlier work.
The conditions of data set [2]: in humans; cited from earlier work.
For data set [3], the system named is influenza virus neuraminidase. To be noted: influenza virus neuraminidase inhibitor; cited from earlier work.

For the molecule `CCOC(=O)C1=C[C@@H](OC(CC)CC)[C@H](NC(C)=O)[C@@H](NC(=N)N)C1` [GO, (3R,4R,5S)-ethyl-4-acetamido-5-guanidino-3-(pentan-3-yloxy)cyclohex-1-enecarboxylate], the “Caco-2 Papp in the absence of HNAP” value in the data set on Caco-2 cell monolayers was “no detectable transport”. Also, the “change of rat jejunal Peff on co-perfusion with HNAP” value in the data set on rat jejunum (co-perfusion with 12 mM HNAP versus drug alone) is reported as “failed to increase; also recorded: no significant increase”. The “rat jejunal Peff in the absence of HNAP” value in the data set on rat jejunum is given as “No effective permeability; also recorded: Essentially zero”. Moreover, the “increase of log P by ion-pairing with HNAP compared to the free drug” value in “Octanol-buffer” turned out to be 3.7 units.
Take `CCCCCCCOC(=O)C1=C[C@H](NC(=N)N)[C@@H](NC(C)=O)[C@H]([C@H](O)[C@H](O)CO)O1` [ZHE, 5-Acetamido-2,6-anhydro-4-(guanidino)-3,4,5-trideoxy-D-glycero-D-galcto-non-2-enonic acid heptyl ester]: the “Caco-2 Papp in the absence of HNAP” value in the data set on Caco-2 cell monolayers is listed as “no detectable transport”. The “rat jejunal Peff at 4 mM HNAP” value in the data set on rat jejunum (4 mM HNAP) is 2.1e-05 cm/s. Besides, the “rat jejunal Peff at 10 mM HNAP” value with rat jejunum (10 mM HNAP) was found to be 4e-05 cm/s. Moreover, the “rat jejunal Peff in the absence of HNAP” value with rat jejunum is “essentially zero”. Besides, the “increase of log P by ion-pairing with HNAP compared to the free drug” value in “Octanol-buffer” was determined as 1.2 units.
`CC(=O)N[C@H]1[C@H]([C@H](O)[C@H](O)CO)OC(C(=O)O)=C[C@@H]1N=C(N)N` [ZNV, Zanamivir]: in data set [1], the “percent of oral dose absorbed (%F)” value is recorded as 4%.
`CCOC(=O)C1=C[C@@H](OC(CC)CC)[C@H](NC(C)=O)[C@@H](N)C1` [OSV, oseltamivir]: the oral absorption in data set [2] is recorded as 60–80%.
With `CCC(CC)O[C@@H]1C=C(C(=O)O)C[C@H](NC(=N)N)[C@H]1NC(C)=O` [active carboxylate of GO], the pIC50 in data set [3] was 9.05.

The values are drawn from PMC3496398 (Molecular pharmaceutics, 2010).
